Structures can show the parent of a compound that is named as a salt.

In publication PMC6792352, “Limited Chemical Structural Diversity Found to Modulate Thyroid Hormone Receptor in the Tox21 Chemical Library” (Environmental Health Perspectives, 2019) one finds CC50 data, which are given here for 37 compounds.

One data set is described as follows: in vitro. Conditions: rat, gh3-tre-luc cells, AC50 (uM) modified / 1000.
As for `S=C=NCCc1ccccc1` [Phenethyl isothiocyanate], the CC50 at 24 h came out at 79.7 µM. This lies in the double-digit micromolar range.

Compound `C/C=C(\C)C(=O)OCCc1ccccc1` [Phenethyl tiglate] gave a CC50 at 24 h of over 90 µM.

In turn, `O=C1c2ccccc2C(=O)C1c1ccccc1` [Phenindione] displayed a CC50 at 24 h of over 20 µM.

For `CN(C)CCC(c1ccccc1)c1ccccn1` (stereo not drawn) [Pheniramine maleate], the CC50 at 24 h was over 90 µM.

`CCC1(c2ccccc2)C(=O)NC(=O)NC1=O` [Phenobarbital] yielded a CC50 at 24 h of over 90 µM.

In turn, `O=S1(=O)OC(c2ccc(O)cc2)(c2ccc(O)cc2)c2ccccc21` [Phenol Red sodium salt] gave a CC50 at 24 h of 46.9 µM.

With `Oc1ccccc1` [Phenol], the CC50 at 24 h is over 50 µM.

`O=C(O)c1ccccc1C(c1ccc(O)cc1)c1ccc(O)cc1` [Phenolphthalin] had a CC50 at 24 h of over 90 µM.

`c1ccc2c(c1)Nc1ccccc1S2` [Phenothiazine]: the half-maximal cytotoxic concentration (CC50) at 24 h is over 90 µM.

`CC(C)=CC1C(C(=O)OCc2cccc(Oc3ccccc3)c2)C1(C)C` (stereo not drawn) [Phenothrin] had a 50% cytotoxic concentration (CC50) at 24 h of over 90 µM.

Regarding `c1ccc2c(c1)Oc1ccccc1S2` [Phenoxathiin], the CC50 at 24 h was over 90 µM.

As for `CC(C)C(=O)OCCOc1ccccc1` [Phenoxyethyl isobutyrate], the CC50 at 24 h is over 90 µM.

`CCC(=O)OCCOc1ccccc1` [Phenoxyethyl propionate] gave a CC50 at 24 h of over 90 µM.

Compound `CC(COc1ccccc1)NN` (stereo not drawn) [Phenoxypropazine] returned a CC50 at 24 h of over 50 µM.

With `NC(=O)OCCCc1ccccc1` [Phenprobamate], the CC50 at 24 h was over 50 µM.

Take `CN1C(=O)CC(c2ccccc2)C1=O` (stereo not drawn) [Phensuximide]: the CC50 at 24 h is over 50 µM.

Compound `CCOC(=O)C(SP(=S)(OC)OC)c1ccccc1` (stereo not drawn) [Phenthoate] had a CC50 at 24 h of over 90 µM.

The compound `Cc1ccc(N(CC2=NCCN2)c2cccc(O)c2)cc1` [Phentolamine] showed a CC50 at 24 h of 45.1 µM.

`O=C(Oc1ccccc1)c1ccc2ccccc2c1O` [Phenyl 1-hydroxy-2-naphthoate]: the half-maximal cytotoxic concentration (CC50) at 24 h was over 90 µM.

For the compound `Nc1ccc(C(=O)Oc2ccccc2)c(O)c1` [Phenyl 4-aminosalicylate], the CC50 at 24 h is over 50 µM.

Compound `O=C(CCCCCCCCC#CI)Oc1ccccc1` [Phenyl 11-iodo-10-undecynoate] had a CC50 at 24 h of over 50 µM.

`O=C(Oc1ccccc1)c1ccccc1` [Phenyl benzoate] yielded a CC50 at 24 h of over 90 µM.

On to `O=P(O)(O)Oc1ccccc1` [Phenyl dihydrogen phosphate], for which the CC50 at 24 h is over 90 µM.

`c1ccc(OCC2CO2)cc1` (stereo not drawn) [Phenyl glycidyl ether]: the CC50 at 24 h was over 90 µM.

Consider `S=C=Nc1ccccc1` [Phenyl isothiocyanate], for which the CC50 at 24 h is over 90 µM.

The compound `O=C(Oc1ccccc1)c1ccccc1O` [Phenyl salicylate] had a CC50 at 24 h of over 50 µM.

`O=CCc1ccccc1` [Phenylacetaldehyde] gave a CC50 at 24 h of over 90 µM.

In turn, `N[C@@H](Cc1ccccc1)C(=O)O` [Phenylalanine] came in with a CC50 at 24 h of over 50 µM.

In turn, `CCCCC1C(=O)N(c2ccccc2)N(c2ccccc2)C1=O` [Phenylbutazone] gave a CC50 at 24 h of over 90 µM.

As to `CNC[C@H](O)c1cccc(O)c1` [Phenylephrine hydrochloride], the CC50 at 24 h is over 90 µM.

Compound `NNCCc1ccccc1` [Phenylethylhydrazine sulfate] showed a CC50 at 24 h of 32.3 µM.

The data set is the same for the next values; noted with them: rat, gh3-tre-luc cells, AC50 (uM) modified / 1000, Tox21_110001=Tox21_111092; viability, 1 nM T3 present, 24 h.
For the compound `O=C(O)COc1ccccc1` [Phenoxyacetic acid], the 50% cytotoxic concentration (CC50) at 24 h is over 50 µM.

The same data set, now with this note: rat, gh3-tre-luc cells, AC50 (uM) modified / 1000, Tox21_110001=Tox21_112166; viability, 1 nM T3 present, 24 h.
The compound `CC1NCCOC1c1ccccc1` (stereo not drawn) [Phenmetrazine hydrochloride] had a CC50 at 24 h of over 50 µM.

The data set is the same for the next values; noted with them: rat, gh3-tre-luc cells, AC50 (uM) modified / 1000, Tox21_110001=Tox21_113042; viability, 1 nM T3 present, 24 h.
For the compound `O=C(O)Cc1ccccc1` [Phenylacetic acid], the CC50 at 24 h is over 50 µM.

The data set is the same for the next values; noted with them: rat, gh3-tre-luc cells, AC50 (uM) modified / 1000, Tox21_110001=Tox21_200102; viability, 1 nM T3 present, 24 h.
In turn, `BrCCc1ccccc1` [Phenethyl bromide] came in with a CC50 at 24 h of over 90 µM.

Staying with this data set, now noted: rat, gh3-tre-luc cells, AC50 (uM) modified / 1000, Tox21_110001=Tox21_200533; viability, 1 nM T3 present, 24 h.
Regarding `O=C(O)Cc1ccccc1` [Phenylacetic acid], the CC50 at 24 h is over 90 µM.

Staying with this data set, now noted: rat, gh3-tre-luc cells, AC50 (uM) modified / 1000, Tox21_110001=Tox21_201295; viability, 1 nM T3 present, 24 h.
`COC(=O)Nc1cccc(OC(=O)Nc2cccc(C)c2)c1` [Phenmedipham] displayed a CC50 at 24 h of over 90 µM.

Still in this data set, the particulars now being: rat, gh3-tre-luc cells, AC50 (uM) modified / 1000, Tox21_110001=Tox21_201854; viability, 1 nM T3 present, 24 h.
On to `O=C(O)COc1ccccc1` [Phenoxyacetic acid], for which the CC50 at 24 h is over 90 µM.

The same data set, now with this note: rat, gh3-tre-luc cells, AC50 (uM) modified / 1000, Tox21_110001=Tox21_202175; viability, 1 nM T3 present, 24 h.
With `Nc1ccccc1C(=O)OCCc1ccccc1` [Phenethyl anthranilate], the CC50 at 24 h is over 90 µM.
